# Article PMC11729419, “Thiol-Reactive or Redox-Active: Revising a Repurposing Screen Led to a New Invalidation Pipeline and Identified a True Noncovalent Inhibitor Against Papain-like Protease from SARS-CoV-2” (ACS Pharmacology & Translational Science, 2024)
# pIC50: −log10 of the molar value. Structures can show the parent of a compound that is named as a salt. Where two headings read alike, the source gives them in different places.
# Tests used:
# [1] = target: SARS-CoV-2 PLpro-NAB (Severe acute respiratory syndrome coronavirus 2, UniProt P0DTD1); test: biochemical; conditions: for Inhibition in L-cysteine buffer versus DTT buffer (dose-response): 1 mM L-cysteine vs 1 mM DTT; for Inhibitory activity on retest in 1 mM L-cysteine: 50% inhibition at 20 μM
# [2] = target: SARS-CoV-2 PLpro (Severe acute respiratory syndrome coronavirus 2, UniProt P0DTD1); format: biochemical; conditions: dose-response, ISG15 substrate
# [3] = target: SARS-CoV-2 Mpro (Severe acute respiratory syndrome coronavirus 2, UniProt P0DTD1); format: biochemical; conditions: 10 μM; 1 mM DTT
# [4] = Table S1, DTT buffer, read-out: HP PLpro-NAB SARS-CoV-2 IC50 [µM] triplicates DTT BUFFER
# [5] = Table S1, L-cysteine buffer, read-out: HP PLpro-NAB SARS-CoV-2 IC50 [µM] duplicates L-CYS BUFFER
# [6] = read-out: HC PLpro-NAB SARS-CoV-2 inhibition [%] 20 µM triplicates DTT BUFFER
# [7] = read-out: HP PLpro-NAB SARS-CoV-2 inhibition [%] 20 µM triplicates L-CYS BUFFER
# [8] = Table S1, 20 µM, DTT buffer, average (SD)
# [9] = Table S1, 20 µM, L-cysteine buffer, average (SD)
compound,measurement,setting,value
CC[N+](C)(CC)CCC[n+]1c(-c2ccccc2)c2cc(N)ccc2c2ccc(N)cc21.[I-].[I-] [Propidium-Iodide],Interference inhibition [%] 20 µM based on product interference DTT BUFFER,"Table S1, 20 µM, DTT buffer",0.27%
O=C(O)c1c(Cl)c(Cl)c(Cl)c(Cl)c1-c1c2cc(I)c(=O)c(I)c-2oc2c(I)c(O)c(I)cc12 [Rose Bengal Sodium],inhibition at 20 µM,"[1]; Table S1, 20 µM, DTT buffer, average (SD), read-out: HC PLpro-NAB SARS-CoV-2 inhibition [%] 20 µM triplicates DTT BUFFER",107%
same,inhibition at 20 µM,"[1]; Table S1, 20 µM, L-cysteine buffer, average (SD), read-out: HP PLpro-NAB SARS-CoV-2 inhibition [%] 20 µM triplicates L-CYS BUFFER",-32.4%
same,IC50,[1]; [4],> 20 µM
same,IC50,[1]; [5],> 20 µM
same,Interference inhibition [%] 20 µM based on product interference DTT BUFFER,"Table S1, 20 µM, DTT buffer",12.07%
CC1=CC(=O)c2ccccc2C1=O [Menadione],inhibition at 20 µM,[1]; [6],115%
same,inhibition at 20 µM,[1]; [7],-45.7%
same,Interference inhibition [%] 20 µM based on product interference DTT BUFFER,,-9.41%
O=C1C=CC(=O)c2c(O)cccc21 [Juglone],Interference inhibition [%] 20 µM based on product interference DTT BUFFER,"Table S1, 20 µM, DTT buffer",12.84%
"O=c1cc(-c2cc(O)c(O)c(O)c2)oc2cc(O)c(O)c(O)c12 [DOM_SIM_710, 3′,4’,5′,5,6,7-hexahydroxyflavone]",Inhibition in L-cysteine buffer versus DTT buffer (dose-response),[1],increased inhibition
same,Inhibitory activity on retest in 1 mM L-cysteine,[1],retained their inhibitory activity
same,inhibition at 20 µM,"[1]; hit confirmation, 20 μM, 1 mM DTT buffer, average (SD), 20 μM PR619 = 100%, DMSO = 0%, read-out: HC PLpro-NAB inhibition [%] 20 μM triplicates 1 mM DTT buffer",65%
same,inhibition at 20 µM,"[1]; hit profiling, 20 μM, 1 mM L-cys buffer, average (SD), 20 μM PR619 = 100%, read-out: HP PLpro-NAB inhibition [%] 20 μM triplicates 1 mM L-cys buffer",155%
same,pIC50,"[1]; hit profiling, 1 mM DTT buffer",< 4.70
same,Interference inhibition [%] 20 µM based on product interference DTT BUFFER,"Table S1, 20 µM, DTT buffer",10.43%
same,Potency against PLpro compared with PLpro-NAB,[2],higher potency against PLpro compared with PLpro-NAB
same,Preference PLpro over Mpro,[3],preferential inhibition of PLpro over Mpro
C[n+]1c2cc(N)ccc2cc2ccc(N)cc21.[Cl-] [Acriflavinium Hydrochloride],Interference inhibition [%] 20 µM based on product interference DTT BUFFER,"Table S1, 20 µM, DTT buffer",-17.48%
CC1(C)CCC2=C(O1)C(=O)c1ccccc1C2=O [Alpha Lapachone],Interference inhibition [%] 20 µM based on product interference DTT BUFFER,"Table S1, 20 µM, DTT buffer",-0.29%
NC(Cc1cc(O)c(O)cc1O)C(=O)O (racemic) [6-Hydroxy-DL-DOPA],Interference inhibition [%] 20 µM based on product interference DTT BUFFER,"Table S1, 20 µM, DTT buffer",14.95%
Cc1cc(-c2ccc(/N=N/c3ccc4c(S(=O)(=O)O)cc(S(=O)(=O)O)c(N)c4c3O)c(C)c2)ccc1/N=N/c1ccc2c(S(=O)(=O)O)cc(S(=O)(=O)O)c(N)c2c1O [Evans Blue],Interference inhibition [%] 20 µM based on product interference DTT BUFFER,"Table S1, 20 µM, DTT buffer",6.47%
Ryuvidine,Interference inhibition [%] 20 µM based on product interference DTT BUFFER,"Table S1, 20 µM, DTT buffer",-2.15%
Cc1cccc2c3c(ccc12)C1=C(C(=O)C3=O)[C@@H](C)CO1 [Dihydrotanshinone I],Interference inhibition [%] 20 µM based on product interference DTT BUFFER,"Table S1, 20 µM, DTT buffer",-55.01%
"O=C1C(=O)c2ccccc2-c2ccccc21 [9,10-Phenanthrenequinone]",Interference inhibition [%] 20 µM based on product interference DTT BUFFER,"Table S1, 20 µM, DTT buffer",-2.46%
CCOC(=O)C1=C(C)N=c2sc(=Cc3ccc(OCC(=O)O)cc3)c(=O)n2C1c1ccc(SC)cc1 (centres unmarked) [ML120],Interference inhibition [%] 20 µM based on product interference DTT BUFFER,"Table S1, 20 µM, DTT buffer",3.32%
SF1670,Interference inhibition [%] 20 µM based on product interference DTT BUFFER,"Table S1, 20 µM, DTT buffer",9.17%
CC[n+]1c(-c2ccccc2)c2cc(N)ccc2c2ccc(N)cc21 [Homidium Bromide],Interference inhibition [%] 20 µM based on product interference DTT BUFFER,"Table S1, 20 µM, DTT buffer",1.40%
C[C@H]1COC2=C1C(=O)C(=O)c1c2ccc2c1CCCC2(C)C [Cryptotanshinone],Interference inhibition [%] 20 µM based on product interference DTT BUFFER,"Table S1, 20 µM, DTT buffer",3.37%
Bacitracin [Bacitracin (Zinc)],Interference inhibition [%] 20 µM based on product interference DTT BUFFER,"Table S1, 20 µM, DTT buffer",-1.67%
Cc1c(S(=O)(=O)O)oc2c1C(=O)C(=O)c1c-2ccc2c1CCCC2(C)C [Sodium-Tanshinone-ii-A-Sulfonate],inhibition at 20 µM,[1]; [7],-51.9%
same,Interference inhibition [%] 20 µM based on product interference DTT BUFFER,"Table S1, 20 µM, DTT buffer",-7.60%
Oc1c(Cl)cc(Cl)c(Cl)c1Cc1c(O)c(Cl)cc(Cl)c1Cl [Hexachlorophene],Interference inhibition [%] 20 µM based on product interference DTT BUFFER,"Table S1, 20 µM, DTT buffer",15.14%
Cc1cc(-c2ccc(/C=C3/SC(=Nc4ccc(Cl)c(C(=O)O)c4)NC3=O)o2)c([N+](=O)[O-])cc1C [PT 1],Interference inhibition [%] 20 µM based on product interference DTT BUFFER,"Table S1, 20 µM, DTT buffer",9.93%
Chicago-Sky-Blue-6b,Interference inhibition [%] 20 µM based on product interference DTT BUFFER,"Table S1, 20 µM, DTT buffer",-5.59%
COc1cccc2c(NCc3ccccc3)nc(-n3c(N)nc4ccccc43)nc12 [ML240],Interference inhibition [%] 20 µM based on product interference DTT BUFFER,"Table S1, 20 µM, DTT buffer",16.72%
CN(C)CCNc1nc2cc(O)ccc2c2c1C(=O)c1ccccc1-2.Cl.Cl [TAS-103 (dihydrochloride)],Interference inhibition [%] 20 µM based on product interference DTT BUFFER,"Table S1, 20 µM, DTT buffer",1.87%
"CC(C)Nc1cccnc1N1CCN(C(=O)c2cc3cc(NS(C)(=O)=O)ccc3[nH]2)CC1 [Delavirdine (mesylate), Delavirdine]",inhibition at 20 µM,[1]; [6],52.2%
same,inhibition at 20 µM,[1]; [7],-69.3%
same,Interference inhibition [%] 20 µM based on product interference DTT BUFFER,,-20.91%
O=c1c(O)cccc2cc(O)c(O)c(O)c12 [purpurogallin],Inhibition in L-cysteine buffer versus DTT buffer (dose-response),[1],increased inhibition
same,Inhibitory activity on retest in 1 mM L-cysteine,[1],retained their inhibitory activity
same,inhibition at 20 µM,[1]; read-out: HC PLpro-NAB inhibition [%] 20 μM triplicates 1 mM DTT buffer,62.8%
same,inhibition at 20 µM,[1]; read-out: HP PLpro-NAB inhibition [%] 20 μM triplicates 1 mM L-cys buffer,101%
same,Interference inhibition [%] 20 µM based on product interference DTT BUFFER,"Table S1, 20 µM, DTT buffer",12.84%
same,Potency against PLpro compared with PLpro-NAB,[2],higher potency against PLpro compared with PLpro-NAB
same,Preference PLpro over Mpro,[3],preferential inhibition of PLpro over Mpro
Cc1nc2c(=O)n(C)c(=O)nc-2n(C)n1 [3-Methyl Toxoflavin],Interference inhibition [%] 20 µM based on product interference DTT BUFFER,"Table S1, 20 µM, DTT buffer",10.44%
Cn1cccc1/C=C1\C(=O)NC(=O)c2ccccc21 [BYK-204165],Interference inhibition [%] 20 µM based on product interference DTT BUFFER,"Table S1, 20 µM, DTT buffer",-5.54%
N#CSc1cc(SC#N)c(N)nc1N [PR-619],Interference inhibition [%] 20 µM based on product interference DTT BUFFER,"Table S1, 20 µM, DTT buffer",-14.28%
same,Inhibition of Mpro,[3],inhibition of both proteases from SARS-CoV-2
Walrycin B,Interference inhibition [%] 20 µM based on product interference DTT BUFFER,"Table S1, 20 µM, DTT buffer, listed as Walrycin B (EOS)",8.01%
same,Interference inhibition [%] 20 µM based on product interference DTT BUFFER,"Table S1, 20 µM, DTT buffer, listed as Walrycin B (FhG)",4.84%
CC1(C)CCC2=C(O1)c1ccccc1C(=O)C2=O [Beta-Lapachone],Interference inhibition [%] 20 µM based on product interference DTT BUFFER,"Table S1, 20 µM, DTT buffer",13.40%
O=C1C(Cl)=C(NCCN2CCOCC2)C(=O)c2ncccc21 [NSC-663284 (FhG)],HC PLpro-NAB SARS-CoV-2 inhibition [%] 20 µM triplicates DTT BUFFER,[1]; [8],150.90 (0.34) %
same,HC PLpro-NAB SARS-CoV-2 inhibition [%] 20 µM triplicates DTT BUFFER,"[1]; Table S1, 20 µM, DTT buffer, average (SD), listed as NSC 663284 (EOS)",168.59 (3.49) %
same,HP PLpro-NAB SARS-CoV-2 inhibition [%] 20 µM triplicates L-CYS BUFFER,[1]; [9],7.56 (11.27) %
same,HP PLpro-NAB SARS-CoV-2 inhibition [%] 20 µM triplicates L-CYS BUFFER,"[1]; Table S1, 20 µM, L-cysteine buffer, average (SD), listed as NSC 663284 (EOS)",-38.39 (8.32) %
same,IC50,"[1]; Table S1, DTT buffer, listed as NSC 663284 (EOS), read-out: HP PLpro-NAB SARS-CoV-2 IC50 [µM] triplicates DTT BUFFER",2.15 µM
same,IC50,[1]; [4],0.22 µM
same,IC50,[1]; [5],> 20 µM
same,Interference inhibition [%] 20 µM based on product interference DTT BUFFER,"Table S1, 20 µM, DTT buffer",-0.99%
same,Interference inhibition [%] 20 µM based on product interference DTT BUFFER,"Table S1, 20 µM, DTT buffer, listed as NSC 663284 (EOS)",14.95%
O=C(O)c1cc(O)c2c(c1)[C@H]([C@H]1c3cc(C(=O)O)cc(O)c3C(=O)c3c(O[C@@H]4O[C@H](CO)[C@@H](O)[C@H](O)[C@H]4O)cccc31)c1cccc(O[C@@H]3O[C@H](CO)[C@@H](O)[C@H](O)[C@H]3O)c1C2=O [sennoside A],Inhibition in L-cysteine buffer versus DTT buffer (dose-response),[1],lost its inhibitory potency
same,Inhibitory activity on retest in 1 mM L-cysteine,[1],retained their inhibitory activity
same,Interference inhibition [%] 20 µM based on product interference DTT BUFFER,"Table S1, 20 µM, DTT buffer",1.69%
same,Inhibition of Mpro,[3],inhibition of both proteases from SARS-CoV-2
Cyanocobalamin,HC PLpro-NAB SARS-CoV-2 inhibition [%] 20 µM triplicates DTT BUFFER,[1]; [8],141.27 (3.32) %
same,HP PLpro-NAB SARS-CoV-2 inhibition [%] 20 µM triplicates L-CYS BUFFER,[1]; [9],32.29 (7.95) %
same,IC50,[1]; [4],2.9 µM
same,IC50,[1]; [5],> 20 µM
same,Interference inhibition [%] 20 µM based on product interference DTT BUFFER,"Table S1, 20 µM, DTT buffer",4.81%
CC1(C)C(=O)N=C2C1=C(O)C(=O)c1ccccc12 [BVT-948],Interference inhibition [%] 20 µM based on product interference DTT BUFFER,"Table S1, 20 µM, DTT buffer",-137.72%
COCCn1c2c([n+](Cc3cnccn3)c1C)C(=O)c1ccccc1C2=O [YM-155],Interference inhibition [%] 20 µM based on product interference DTT BUFFER,"Table S1, 20 µM, DTT buffer",-0.69%
Ro-08-2750,Interference inhibition [%] 20 µM based on product interference DTT BUFFER,"Table S1, 20 µM, DTT buffer",0.17%
Nc1ccc(O)c2ncccc12 [PD119507],Interference inhibition [%] 20 µM based on product interference DTT BUFFER,"Table S1, 20 µM, DTT buffer",3.43%
"O=c1ccc2[n+]([O-])c3ccc(O)cc3oc-2c1 [Resazurin (sodium salt), Resazurin]",inhibition at 20 µM,[1]; [6],72.9%
same,inhibition at 20 µM,[1]; [7],-36.5%
same,Interference inhibition [%] 20 µM based on product interference DTT BUFFER,"Table S1, 20 µM, DTT buffer",11.91%
O=C(Nc1ccccc1-c1cn2c(CN3CCNCC3)csc2n1)c1cnc2ccccc2n1 [SRT 1720],Interference inhibition [%] 20 µM based on product interference DTT BUFFER,"Table S1, 20 µM, DTT buffer",22.23%
